Test results from patent publication US12617752B2, “Rapidly metabolized lipid compound” (Beijing Jitai Life Sciences Ltd, priority 2023, dated 2026).
One block for each compound: values may come before it.

Experiments:
[1] = tested on: C57BL/6 mice; experiment: In vivo delivery of luciferase mRNA lipid nanoparticles in mice (bioluminescence imaging); conditions: intravenous, single dose 0.5 mg/kg luciferase mRNA
Outline: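 Female C57BL/6 mice, 6-8 weeks old, received luciferase mRNA lipid nanoparticles as a single intravenous dose of 0.5 mg/kg mRNA. At 6 h, D-luciferin given intraperitoneally; 10 min later, mice were imaged under isoflurane anaesthesia. Values are group mean fluorescence intensity and total photon count.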

[2] = Encapsulation efficiency of lipid nanoparticles (Quant-it RiboGreen RNA Assay); type: physicochemical; conditions: lipid nanoparticles with luciferase mRNA
Outline: (§1)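 LNPs of ionizable lipid/cholesterol/phospholipid/PEG-lipid (50/38.5/10/1.5 mol%, N/P 6) were formed by microfluidic mixing with mRNA in pH 4.5 acetate, then buffer-exchanged by ultrafiltration. Size and PDI were measured by DLS. Encapsulation came from RiboGreen fluorescence (485/528 nm) in TE pH 7.5, with and without 0.5% Triton at 37 °C for 30 min.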

[3] = Particle size and PDI of lipid nanoparticles by dynamic light scattering; type: physicochemical; conditions: lipid nanoparticles with luciferase mRNA; ionizable lipid/cholesterol/DSPC/DMG-PEG2000 50/38.5/10/1.5 mol%
Outline: as §1

SMILES: CCCCCCCCCCC(=O)OCCCC(C)(C)CCCN(CCO)CCCCCCCC(=O)OCCC(CCCCCCC)CCCCCCC [80b]
Total photon count in vivo at 6 hours after administration (Total Flux) [1]: 8.94E+10
Encapsulation efficiency (%) [2]: 93.59%
Particle size (nm) [3]: 93.39 nm
Particle-size distribution (PDI) [3]: 0.18

SMILES: CCCCCCCCCCC(=O)OCCCC(C)(C)CCCN(CCCO)CCCCCCCC(=O)OCCC(CCCCCCC)CCCCCCC [81b]
Total photon count in vivo at 6 hours after administration (Total Flux) [1]: 5.20E+10
Encapsulation efficiency (%) [2]: 92.87%
Particle size (nm) [3]: 107.43 nm
Particle-size distribution (PDI) [3]: 0.19

SMILES: CCCCCCCCCC(=O)OCCCC(C)(C)CCCN(CCCO)CCCCCCC(=O)OCC(CCCCCCCC)CCCCCCCC [82b]
Total photon count in vivo at 6 hours after administration (Total Flux) [1]: 5.03E+10
Encapsulation efficiency (%) [2]: 90.71%
Particle size (nm) [3]: 99.57 nm
Particle-size distribution (PDI) [3]: 0.16

SMILES: CCCCCCCCCC(=O)OCCCC(C)(C)CCCN(CCCO)CCCCCCC(=O)OCCCC(CCCCCC)CCCCCC [83b]
Total photon count in vivo at 6 hours after administration (Total Flux) [1]: 1.62E+10
Encapsulation efficiency (%) [2]: 95.70%
Particle size (nm) [3]: 100.67 nm
Particle-size distribution (PDI) [3]: 0.10

SMILES: CCCCCCCCCC(=O)OCCCC(C)(C)CCCN(CCCCO)CCCCCCC(=O)OCC(CCCCCCCC)CCCCCCCC [84b]
Total photon count in vivo at 6 hours after administration (Total Flux) [1]: 6.68E+10
Encapsulation efficiency (%) [2]: 89.17%
Particle size (nm) [3]: 123.77 nm
Particle-size distribution (PDI) [3]: 0.11

SMILES: CCCCCCCCCC(=O)OCCCC(C)(C)CCCN(CCCO)CCCCCCC(=O)OCCC(CCCCCCC)CCCCCCC [92b]
Total photon count in vivo at 6 hours after administration (Total Flux) [1]: 3.74E+10
Encapsulation efficiency (%) [2]: 92.47%
Particle size (nm) [3]: 99.90 nm
Particle-size distribution (PDI) [3]: 0.15

SMILES: CCCCCCCCCC(=O)OCCCC(C)(C)CCCN(CCCCO)CCCCCCC(=O)OCCC(CCCCCCC)CCCCCCC [93b]
Total photon count in vivo at 6 hours after administration (Total Flux) [1]: 2.45E+10
Encapsulation efficiency (%) [2]: 90.17%
Particle size (nm) [3]: 141.73 nm
Particle-size distribution (PDI) [3]: 0.10

SMILES: CCCCCCCCCC(=O)OCCCC(C)(C)CCCN(CCCCO)CCCCCCC(=O)OCCCC(CCCCCC)CCCCCC [94b]
Total photon count in vivo at 6 hours after administration (Total Flux) [1]: 2.23E+10
Encapsulation efficiency (%) [2]: 93.55%
Particle size (nm) [3]: 125.60 nm
Particle-size distribution (PDI) [3]: 0.11

SMILES: CCCCCCCCCCC(=O)OCCCC(C)(C)CCCN(CCO)CCCCCCC(=O)OCC(CCCCCCCCC)CCCCCCCCC [95b]
Total photon count in vivo at 6 hours after administration (Total Flux) [1]: 2.44E+10
Encapsulation efficiency (%) [2]: 95.41%
Particle size (nm) [3]: 84.62 nm
Particle-size distribution (PDI) [3]: 0.15

SMILES: CCCCCCCCCCC(=O)OCCCC(C)(C)CCCN(CCO)CCCCCCCCC(=O)OCC(CCCCCCC)CCCCCCC [96b]
Total photon count in vivo at 6 hours after administration (Total Flux) [1]: 3.77E+10
Encapsulation efficiency (%) [2]: 92.10%
Particle size (nm) [3]: 97.75 nm
Particle-size distribution (PDI) [3]: 0.15

SMILES: CCCCCCCCCCC(=O)OCCC(C)(C)CCCCN(CCO)CCCCCCCC(=O)OCC(CCCCCCCC)CCCCCCCC [99b]
Total photon count in vivo at 6 hours after administration (Total Flux) [1]: 4.78E+10
Encapsulation efficiency (%) [2]: 92.70%
Particle size (nm) [3]: 85.13 nm
Particle-size distribution (PDI) [3]: 0.15

SMILES: CCCCCCCCCC(=O)OCCC(C)(C)CCCCN(CCO)CCCCCCC(=O)OCCC(CCCCCCC)CCCCCCC [102b]
Total photon count in vivo at 6 hours after administration (Total Flux) [1]: 7.52E+10
Encapsulation efficiency (%) [2]: 93.92%
Particle size (nm) [3]: 92.12 nm
Particle-size distribution (PDI) [3]: 0.16

SMILES: CCCCCCCCCC(=O)OCCC(C)(C)CCCCN(CCCO)CCCCCCC(=O)OCCC(CCCCCCC)CCCCCCC [103b]
Total photon count in vivo at 6 hours after administration (Total Flux) [1]: 5.95E+10
Encapsulation efficiency (%) [2]: 94.07%
Particle size (nm) [3]: 96.82 nm
Particle-size distribution (PDI) [3]: 0.11

Now from value to compound, other results behind:

Encapsulation efficiency (%) [2]: 92.85%
Particle size (nm) [3]: 99.27 nm
Particle-size distribution (PDI) [3]: 0.15
SMILES: CCCCCCCCCCC(=O)OCC(C)(C)CCCCCN(CCCO)CCCCCCCCC(=O)OCC(CCCCCCC)CCCCCCC [79b]
Total photon count in vivo at 6 hours after administration (Total Flux) [1]: 1.62E+11

Encapsulation efficiency (%) [2]: 95.44%
Particle size (nm) [3]: 92.14 nm
Particle-size distribution (PDI) [3]: 0.17
SMILES: CCCCCCCCCCC(=O)OCC(C)(C)CCCCCN(CCCO)CCCCCCC(=O)OCC(CCCCCCCCC)CCCCCCCCC [85b]
Total photon count in vivo at 6 hours after administration (Total Flux) [1]: 9.61E+10

Encapsulation efficiency (%) [2]: 94.74%
Particle size (nm) [3]: 92.26 nm
Particle-size distribution (PDI) [3]: 0.13
SMILES: CCCCCCCCCCCC(=O)OCC(C)(C)CCCCCN(CCCO)CCCCCCC(=O)OCC(CCCCCCCCCC)CCCCCCCCCC [86b]
Total photon count in vivo at 6 hours after administration (Total Flux) [1]: 1.01E+11

Encapsulation efficiency (%) [2]: 94.16%
Particle size (nm) [3]: 92.25 nm
Particle-size distribution (PDI) [3]: 0.22
SMILES: CCCCCCCCCCC(=O)OCC(C)(C)CCCCCN(CCO)CCCCCCCCC(=O)OCC(CCCCCCC)CCCCCCC [87b]
Total photon count in vivo at 6 hours after administration (Total Flux) [1]: 1.35E+11

Encapsulation efficiency (%) [2]: 94.68%
Particle size (nm) [3]: 98.16 nm
Particle-size distribution (PDI) [3]: 0.12
SMILES: CCCCCCCCCCCC(=O)OCC(C)(C)CCCCCN(CCCO)CCCCCCCCC(=O)OCC(CCCCCCCC)CCCCCCCC [88b]
Total photon count in vivo at 6 hours after administration (Total Flux) [1]: 4.51E+10

Encapsulation efficiency (%) [2]: 84.88%
Particle size (nm) [3]: 122.20 nm
Particle-size distribution (PDI) [3]: 0.08
SMILES: CCCCCCCCCCC(=O)OCC(C)(C)CCCCCN(CCCCO)CCCCCCCCC(=O)OCC(CCCCCCC)CCCCCCC [89b]
Total photon count in vivo at 6 hours after administration (Total Flux) [1]: 5.51E+10

Encapsulation efficiency (%) [2]: 91.21%
Particle size (nm) [3]: 109.57 nm
Particle-size distribution (PDI) [3]: 0.08
SMILES: CCCCCCCCCCCC(=O)OCC(C)(C)CCCCCN(CCCCO)CCCCCCCCC(=O)OCC(CCCCCCCC)CCCCCCCC [90b]
Total photon count in vivo at 6 hours after administration (Total Flux) [1]: 4.72E+10

Encapsulation efficiency (%) [2]: 91.95%
Particle size (nm) [3]: 96.43 nm
Particle-size distribution (PDI) [3]: 0.12
SMILES: CCCCCCCCCCCC(=O)OCC(C)(C)CCCCCN(CCCCO)CCCCCCC(=O)OCC(CCCCCCCCCC)CCCCCCCCCC [91b]
Total photon count in vivo at 6 hours after administration (Total Flux) [1]: 8.66E+10

Encapsulation efficiency (%) [2]: 93.79%
Particle size (nm) [3]: 85.56 nm
Particle-size distribution (PDI) [3]: 0.14
SMILES: CCCCCCCCCCCC(=O)OCC(C)(C)CCCCCN(CCO)CCCCCCC(=O)OCC(CCCCCCCCCC)CCCCCCCCCC [97b]
Total photon count in vivo at 6 hours after administration (Total Flux) [1]: 9.01E+10

Encapsulation efficiency (%) [2]: 93.04%
Particle size (nm) [3]: 87.99 nm
Particle-size distribution (PDI) [3]: 0.18
SMILES: CCCCCCCCCCCC(=O)OCC(C)(C)CCCCCN(CCO)CCCCCCCCC(=O)OCC(CCCCCCCC)CCCCCCCC [98b]
Total photon count in vivo at 6 hours after administration (Total Flux) [1]: 1.07E+11

Encapsulation efficiency (%) [2]: 91.14%
Particle size (nm) [3]: 101.50 nm
Particle-size distribution (PDI) [3]: 0.12
SMILES: CCCCCCCCCCC(=O)OCCC(C)(C)CCCCN(CCCO)CCCCCCCC(=O)OCC(CCCCCCCC)CCCCCCCC [100b]
Total photon count in vivo at 6 hours after administration (Total Flux) [1]: 8.51E+10

Encapsulation efficiency (%) [2]: 81.76%
Particle size (nm) [3]: 126.00 nm
Particle-size distribution (PDI) [3]: 0.10
SMILES: CCCCCCCCCCC(=O)OCCC(C)(C)CCCCN(CCCCO)CCCCCCCC(=O)OCC(CCCCCCCC)CCCCCCCC [101b]
Total photon count in vivo at 6 hours after administration (Total Flux) [1]: 5.39E+10
